Activity calls are given as the source filed them.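 The calls were made as follows: active = EC50 no more than a set limit of log units above the highest dose; inactive = the rest.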
These molecules were tested against S. pyogenes SKKanGAS, kanamycin survival, BacTiterGlo, 6 h (assay: S. pyogenes SKKanGAS kanamycin growth inhibitors – SKKanGAS strain, luminescence, dose confirmation, streptokinase promoter inhibitor project, dose response (AID 1902);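 also: lower survival reflects blocked streptokinase promoter driving kanamycin resistance gene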).
c1ccc(N(c2ccccc2)c2nc(N3CCCC3)nc(-n3ccnc3)n2)cc1 was tested, and the EC50 was 6.12 µM. For CCN(c1ccccc1)S(=O)(=O)c1ccc(C(=O)Nc2nnc(CSC)o2)cc1, the EC50 was 3.7 µM. Cc1ccc(C)c(NC(=S)N/N=C2/CCCCc3ccccc32)c1 gave an EC50 of 0.643 µM. CCCc1sc(N/N=C/c2ccccn2)nc1-c1ccc(Br)cc1 gave an EC50 of 0.241 µM. With Cc1ccc(C(=O)NC2CCCC2)s1 the EC50 was > 15 µM (inactive). In the case of COCCn1c(N)c(C(=O)NS(=O)(=O)c2ccc(C)cc2)c(=O)[nH]c1=O, the EC50 is reported as > 15 µM (inactive). With CC(C)c1nc(NCc2ccccc2)c(C#N)c2c1CCCC2 the EC50 was 3.55 µM. Work on COc1cccc(C(=O)N/N=C(/c2ccccc2)c2ccccn2)c1 yielded an EC50 of 8.86 µM. Molecule Cc1nn2c(COc3ccc(NC(=O)c4ccccc4)cc3)nnc2c2ccccc12 has an EC50 of 0.603 µM. Work on FC(F)(F)c1cc(-c2ccccc2)nc(N2CCCCCC2)n1 yielded an EC50 of 3.93 µM. In the case of CN(CC1CCCO1)S(=O)(=O)c1ccc(C(=O)Nc2ccc(F)cc2)cc1 (stereo not drawn), the EC50 is reported as > 15 µM (inactive). Work on CCCCCCc1cc2cc(-c3nnc(-c4ccccc4)o3)c(=O)oc2cc1O yielded an EC50 of 3.05 µM. For CCCCCCCCCC[N+](C)(C)CC/C=C1/c2ccccc2Sc2ccc(Cl)cc21, the EC50 was 2.31 µM. O=C(N/N=C/c1cccc(F)c1)c1c(O)c2ccccc2[nH]c1=O gave an EC50 of 2.54 µM. In the case of Cc1ccccc1OCC(=O)NNC(=S)NC(=O)c1ccco1, the EC50 is reported as 0.338 µM. Work on O=C(Nc1ccccc1)c1nnsc1S(=O)c1ccc(Cl)cc1 (stereo not drawn) yielded an EC50 of 1.34 µM. Work on CO[C@H]1C=CO[C@@]2(C)Oc3c(C)c(O)c4c(O)c(c5c(c4c3C2=O)NC2(CCN(CC(C)C)CC2)N=5)=NC(=O)C(C)=CC=C[C@H](C)[C@H](O)[C@@H](C)[C@@H](O)[C@@H](C)[C@H](OC(C)=O)[C@@H]1C yielded an EC50 of under 0.06 µM. Cc1cc(C)n(-c2nc(Nc3ccccc3C)nc(-n3nc(C)cc3C)n2)n1 gave an EC50 of 5.32 µM. CCn1c(C)nc2cc(C(=O)NNC(=S)NC(=O)c3ccc(OC)cc3)ccc21 showed an EC50 of 5.87 µM. For COc1ccc(N2CCN(C(=O)c3cc(C)oc3C)CC2)cc1, the EC50 was > 15 µM (inactive). Work on Oc1cccc(NC(=S)N=Nc2c(O)[nH]c3ccc(Br)cc23)c1 yielded an EC50 of 2.33 µM. In the case of O=C(CN1CCCC1)Nc1ccc(NC(=O)Nc2ccccc2)cc1, the EC50 is reported as > 15 µM (inactive). O=C(NC(=S)N1CCN(c2nc(-c3ccccc3)cs2)CC1)c1cccnc1 gave an EC50 of 4.08 µM. CCOC(=O)c1cnc(-n2nc(C)cc2C)nc1NC1CCCCC1 was tested, and the EC50 was under 0.06 µM. Cc1cccc(/C=N/NC(=O)c2ccc3c(c2)OCCO3)c1O was tested, and the EC50 was 4.39 µM. Cc1cc(N2C(=O)C(O)=C(C(=O)c3cc4ccccc4o3)C2c2cccc(Cl)c2)no1 (stereo not drawn) gave an EC50 of 1.33 µM. For CCOC(=O)c1ccc(NC2=CC(=O)C(=O)c3ccccc32)cc1, the EC50 was 3.48 µM. Molecule O=C(COc1ccc(F)cc1)Nc1nc(-c2ccccn2)cs1 has an EC50 of 5.55 µM. CC(C)c1ccccc1OCC(O)CN(CC(O)COc1cccc2ccccc12)C(C)C (stereo not drawn) showed an EC50 of 4.24 µM. In the case of O=C(O)c1ccc(N/N=C/c2ccc(-c3cccc(Cl)c3)o2)cc1, the EC50 is reported as 6.17 µM. For O=C(Cc1ccccc1)NNC(=S)NC(=O)c1cccs1, the EC50 was 3.83 µM. Work on COc1ccc(-c2oc(NC(=O)CCl)c(C#N)c2-c2ccc(OC)cc2)cc1 yielded an EC50 of 3.11 µM. O=C(Nc1nnc(-c2ccccc2Cl)o1)c1ccc(S(=O)(=O)N2CCCCCC2)cc1 showed an EC50 of 0.264 µM. Molecule S=C(NCc1cccs1)Nc1cc(Cl)cc(Cl)c1 has an EC50 of 7.18 µM. For Cc1ccc(C(=O)N2CCOCC2)cc1Cl, the EC50 was > 15 µM (inactive). With O=C(NC(c1ccc(Cl)cc1)c1cc(Cl)c2cccnc2c1O)c1cccnc1 (stereo not drawn) the EC50 was 0.278 µM. In the case of Cc1cc(N/N=C/c2cccc(Cl)c2)nc(-n2nc(C)cc2C)n1, the EC50 is reported as 0.966 µM. With Cc1[nH]n(-c2cccc3ccccc23)c(=O)c1/C=N/NC(=O)c1cccc([N+](=O)[O-])c1 the EC50 was 2.47 µM. O=C(Nc1nnc(C2CC2)s1)c1cc(-c2ccccc2)nn1-c1ccccc1 showed an EC50 of 6.47 µM. Oc1ccccc1C1CCCCC1c1ccccc1 (stereo not drawn) showed an EC50 of 3.9 µM. O=C(c1ccc(F)cc1)c1cc2ccc(O)cc2oc1=O gave an EC50 of 7.31 µM. With O=C(CSc1nnc(NC(=O)c2cccc(F)c2)s1)NCC1CCCO1 (stereo not drawn) the EC50 was > 15 µM (inactive). Cc1cn(-c2cc(C(=O)Nc3ccc(C)c(NC(=O)C(=O)c4c[nH]c5ccccc45)c3)cc(C(F)(F)F)c2)cn1 showed an EC50 of 2.78 µM. O=S(=O)(Nc1ccc(N=Nc2ccc(O)c3ccccc23)cc1)c1ccccc1 showed an EC50 of 7.08 µM. CC(=O)[C@@]1(O)C(C)CC2C3C=C(C)C4=Cc5c(cnn5-c5ccccc5)C[C@]4(C)C3C(O)C[C@@]21C (stereo partly drawn) was tested, and the EC50 was 3.56 µM. For CN(C)/C=C(\C=N\OCc1ccc(Cl)cc1Cl)C(=O)Nc1ccc(Cl)c(Cl)c1, the EC50 was 0.803 µM. With C[C@@H](O)[C@H]1C(=O)N2C(C(=O)O)=C(S[C@@H]3CN[C@H](C(=O)N(C)C)C3)[C@H](C)[C@H]12 the EC50 was 0.127 µM. N#Cc1c(-c2ccccc2)nc(SCc2cccc(C(F)(F)F)c2)[nH]c1=O showed an EC50 of 1.97 µM. With COc1ccc(C2c3ccc(O)cc3Oc3ncn4nc(-c5ccncc5)nc4c32)cc1OC (stereo not drawn) the EC50 was 6.28 µM. For CCCCC/C=C\C/C=C\C/C=C\C/C=C\CCCC(=O)Nc1ccc(O)cc1, the EC50 was 1.2 µM. Work on CCc1ccc2nc(N3C(=O)C(O)=C(C(=O)c4ccco4)C3c3cccs3)sc2c1 (stereo not drawn) yielded an EC50 of 1.88 µM. Work on CC(C)(C)N/N=C1\CC(c2ccccc2)Oc2ccccc21 (stereo not drawn) yielded an EC50 of 3.03 µM. For CCc1nnc(NC(=O)c2cccc(C(=O)Nc3nnc(CC)s3)n2)s1, the EC50 was 0.961 µM. Work on COc1ccc(/C=N/n2c(C)nc3c([nH]c4ccccc43)c2=O)cc1CN1CCCC(C)(C)C1 yielded an EC50 of 7.93 µM. CC(C)C(=O)Nc1ccc(C(=O)NNC(=S)NC(=O)c2cccs2)cc1 showed an EC50 of 6.57 µM. CCN1CCN(Cc2ccc(NC(=O)c3cc(NC(=O)c4cc(-c5ccc(OC)cc5)n[nH]4)cc(OC)c3)cc2C(F)(F)F)CC1 was tested, and the EC50 was 4.26 µM. O=C(CN1c2ccccc2Sc2ccccc21)NNC(=S)Nc1ccc(Cl)cc1 showed an EC50 of 2.67 µM. For Fc1ccccc1CNc1ccc(Cl)c(Cl)c1, the EC50 was 15.6 µM. Molecule C[C@H]1CC[C@@]2(C)[C@@H](CC[C@@H]3[C@@H]2CC[C@]2(C)[C@@H](O)CC[C@@H]32)C1 has an EC50 of 0.856 µM. In the case of CCN(CCn1cccn1)C(=O)CC1C(=O)NCCN1CCc1ccccc1 (stereo not drawn), the EC50 is reported as > 15 µM (inactive). In the case of CNC(=O)C(=O)NCC1OCCN1S(=O)(=O)c1ccc(OC)c(OC)c1 (stereo not drawn), the EC50 is reported as > 15 µM (inactive). Cc1cccc(OCC(=O)NCC(=O)N/N=C/c2cc(Br)cc(Br)c2O)c1 showed an EC50 of 0.723 µM. CCN1/C(=C/c2ccc3cc(C)ccc3[n+]2CC)Sc2ccc3sccc3c21 gave an EC50 of 2.34 µM. In the case of c1ccc(-c2nc(N3CCCCCC3)c3ccccc3n2)nc1, the EC50 is reported as 1.43 µM. With O=C(NNC(=O)c1cc(-c2ccc(Cl)cc2Cl)nc2ccccc12)Nc1ccccc1 the EC50 was 3.04 µM. Molecule CN(c1ccccc1)S(=O)(=O)c1ccc(C(=O)Nc2nnc(-c3ccc(F)cc3)o2)cc1 has an EC50 of 0.225 µM. In the case of Cc1ccsc1C(=O)OCC(=O)c1cc2ccccc2o1, the EC50 is reported as > 15 µM (inactive). With Cc1cccc(NC(=O)c2nc[nH]c2C(=O)N[C@@H](CCCCNC(=O)OC(C)(C)C)C(=O)OC(C)(C)C)c1 the EC50 was 2.83 µM. For COC(=O)CSc1nnc(-c2cnccn2)n1C, the EC50 was > 15 µM (inactive). Molecule CCOc1ccc2[nH]c3c(N4CCc5ccccc5C4)ncnc3c2c1 has an EC50 of 7.94 µM. COc1ccc(C(=O)/C=C/c2ccc(-c3ccccc3)cc2)cc1CSCC(=O)O gave an EC50 of 5.51 µM. For COc1cccc(OC)c1C(=O)Nc1cc(C)nn1-c1nc2ccccc2[nH]1, the EC50 was 6.26 µM. Molecule Cc1cc(O)c(NC(=S)NC(=O)c2ccc(-c3ccc(Cl)cc3)o2)cc1C has an EC50 of 0.76 µM. Oc1cccc(/C=N/N(Cc2ccccc2)c2ccccc2)c1 was tested, and the EC50 was 6.02 µM. Work on Cn1c(N)c(C(=O)COC(=O)/C=C/c2ccc(OC(F)F)cc2)c(=O)n(C)c1=O yielded an EC50 of 1.47 µM. For O=C(NC(=S)NNC(=O)c1cccs1)c1ccco1, the EC50 was 6.22 µM. For O=C(Nc1ncc(Cc2ccccc2)s1)c1cccs1, the EC50 was 1.9 µM. CCC(C)Sc1cc(-c2nc3ccc(C)cn3c2NCc2ccccc2)ccc1OC (stereo not drawn) was tested, and the EC50 was 1.42 µM. C#CCOCCOCCOCCNc1nc(N2CCN(C(=O)CCCCCCCCCCNC(=O)[C@H](CCCCN)n3cc(C[C@@H](C)CC)nn3)CC2)nc(N2CCN(C(=O)CCCCCCCCCCNC(=O)[C@H](CCCCN)n3cc(C[C@@H](C)CC)nn3)CC2)n1 was tested, and the EC50 was 5.16 µM. Cc1ccc(C(=O)NNC(=S)NC(=O)c2ccccc2)cc1 showed an EC50 of 0.955 µM. Molecule O=C(NNC(=S)NC(=O)c1ccccc1)c1ccc([N+](=O)[O-])cc1 has an EC50 of 3.23 µM. CC(=O)OCC1=C(C(=O)O)N2C(=O)C(NC(=O)c3ccc(F)cc3)C2SC1 (stereo not drawn) was tested, and the EC50 was 2.9 µM. COc1cccc(/C=N/n2c(N)nc3ccccc32)c1OC was tested, and the EC50 was 5.93 µM. With CC(=O)OCC1=C(C(=O)O)N2C(=O)C(NC(=O)C(C)Cn3nc(C)c(Cl)c3C)C2SC1 (stereo not drawn) the EC50 was 2.95 µM. Molecule CC(C)=CCCC1(C)C=Cc2c(c(C)cc3c2[nH]c2cc(O)ccc23)O1 (stereo not drawn) has an EC50 of 2.65 µM. With Brc1cc(-c2ccccc2)nc(-c2ccccc2)n1 the EC50 was 12.1 µM. Molecule COc1cccc(-c2nnc(NC(=O)c3ccc(S(=O)(=O)N4CC(C)OC(C)C4)cc3)o2)c1 (stereo not drawn) has an EC50 of 1.16 µM. In the case of CC(=O)Oc1ccc(/C=N/NS(=O)(=O)c2ccccc2)cc1, the EC50 is reported as > 15 µM (inactive). O=C(COC(=O)c1ccccc1)Nc1ccccc1Sc1ccccc1 showed an EC50 of 8.89 µM. CCCC1=NN2C(=N)/C(=C\c3cc(C)n(-c4cc(C)cc(C)c4)c3C)C(=O)N=C2S1 gave an EC50 of 1.83 µM. For O=[N+]([O-])c1ccc(O)c(-c2nc(-c3ccccc3)c(-c3cccs3)[nH]2)c1, the EC50 was 0.979 µM. With Cc1ccc(C)c(-c2cc(C(=O)Nc3sc(C)c(C)c3C(N)=O)c3ccccc3n2)c1 the EC50 was 3.55 µM. With Cc1ccc2nc(/N=C(\N)NC(=O)NC3CCCCC3)nc(C)c2c1 the EC50 was 1.15 µM. Work on O=C(CCCN1C(=O)/C(=C\c2cccs2)SC1=S)Nc1cc([N+](=O)[O-])ccc1O yielded an EC50 of 5.04 µM. O=C(NC(=S)NNC(=O)c1ccccc1[N+](=O)[O-])c1ccc(Br)cc1 was tested, and the EC50 was 2.24 µM. Nc1nc(CN2CCC(Cc3ccccc3)CC2)nc(Nc2ccccc2)n1 showed an EC50 of 1.95 µM. COc1cc2ccccc2cc1C(=O)Nc1ccc(NC(=O)c2cccs2)cc1 showed an EC50 of 6.02 µM. Molecule COC(=O)c1c(NC(=O)c2ccc([N+](=O)[O-])o2)sc2c1CCN(C(C)C)C2 has an EC50 of 4 µM. O=C(Nc1nnc(-c2ccc(Cl)cc2)o1)c1nc2ccccc2s1 was tested, and the EC50 was 0.178 µM. O=c1cc(/N=C/c2coc3c(ccc4ccccc43)c2=O)[nH]c(=S)[nH]1 showed an EC50 of 1.53 µM. CCOc1ccc(Nc2cc(C)nc(-n3nc(C)cc3C)n2)cc1 gave an EC50 of 14 µM. Molecule CC(C)=CCc1c(O)cc2c(c1O)C(=O)CC(c1ccc(O)cc1)O2 (stereo not drawn) has an EC50 of 6.08 µM. COc1cc([N+](=O)[O-])cc(/C=N\NC(=O)C2COc3ccccc3O2)c1O (stereo not drawn) showed an EC50 of 3.61 µM.

Source: PubChem BioAssay AID1902 (Broad Institute, 2009)
